{
  "source": "paper PMC10799292",
  "about": "“The Role of β-Defensin 1 Against Porphyromonas gingivalis Lipopolysaccharide-Mediated Inflammation in the THP-1 Cell Line” (Cureus, 2023)",
  "assay_type_in_all_cases": "cell-based, human",
  "key": {"THP-1 cells": {"system": "THP-1 cells", "assay": "Cell cycle distribution by flow cytometry", "conditions": "co-treated with β-defensin 1, Pg-LPS stimulated", "procedure": "Untreated control and Pg-LPS stimulated cells were also maintained. The MUSE Cell Cycle Kit was added, and the manufacturer's instructions were followed."}, "COX": {"system": "COX", "assay": "Cyclooxygenase (COX) activity inhibition in lysate of Pg-LPS stimulated THP-1 cells", "conditions": "for COX Percentage inhibition Average / COX Percentage inhibition 1 / COX Percentage inhibition 2: Pg-LPS 1 µg/mL, 24 h; for COX Percentage inhibition Average: mean of duplicates; for COX Percentage inhibition 1: replicate 1; for COX Percentage inhibition 2: replicate 2", "procedure": "(§1) For inducing differentiation of THP-1 cells into macrophages, the cell line was premixed with 25 ng/mL PMA and incubated for 48 hours. After incubation, 5x10^4 cells were activated with Pg-LPS (LPS: 1 µg/mL) for one hour. Pg-LPS stimulated cells were exposed to different concentrations (6.25, 12.5, and 25 ng/mL) of β-defensin 1 and incubated for 24 hours. After incubation, the following anti-inflammatory assays were conducted utilizing the cell lysate.\nThe cyclooxygenase (COX) activity was assayed by the method of Walker and Gierse. The cell lysate was incubated for one minute at 25°C with Tris-HCl buffer (pH 8), glutathione 5 mM/L, and hemoglobin 5 mM/L. Arachidonic acid 200 mM/L was added to initiate the reaction, and after 20 minutes at 37°C, 200 µL of 10% trichloroacetic acid in 1 N hydrochloric acid was added to terminate the reaction. After centrifugation and addition of 200 µL of 1% thiobarbituric acid, the tubes were boiled for 20 minutes. After cooling, the tubes were centrifuged for three minutes. By reading absorbance at […], COX activity was measured, and the percentage of COX activity inhibition was calculated as per the following formula"}, "MPO": {"system": "MPO", "assay": "Myeloperoxidase (MPO) activity in lysate of Pg-LPS stimulated THP-1 cells", "conditions": "for MPO Enzyme activity Average / MPO Enzyme activity 1 / MPO Enzyme activity 2: Pg-LPS 1 µg/mL, 24 h; for MPO Enzyme activity Average: mean of duplicates; for MPO Enzyme activity 1: replicate 1; for MPO Enzyme activity 2: replicate 2", "procedure": "as §1\nCell lysate was homogenized in hexadecyltrimethyl ammonium bromide (HTAB) and potassium phosphate buffer. The samples were centrifuged at 2000g for 30 minutes at 4°C and the activity of myeloperoxidase (MPO) enzyme was measured with the supernatant. MPO in the sample was stimulated by adding 50 mM phosphate buffer (pH 6) containing 1.67 mg/mL guaiacol and 0.0005% hydrogen peroxide. The absorbance change at […] was determined. The MPO activity (U) was shown as units per milliliter of cell lysate. At 25 °C, one unit of MPO activity corresponds to the degradation of 1µM peroxide per minute.\nwhere ΔOD is the density change, Vt is the total volume (mL) (1.1 mL ), L is the light path (1 cm), and £470 is the extinction coefficient for tetraguaiacol (26.6 mM^-1·cm^-1)."}, "[1]": {"system": "Inducible nitric oxide synthase", "assay": "Inducible nitric oxide synthase inhibition in lysate of Pg-LPS stimulated THP-1 cells", "conditions": "for Inducible nitric oxide synthase Percentage inhibition Average / Inducible nitric oxide synthase Percentage inhibition 1 / Inducible nitric oxide synthase Percentage inhibition 2: Pg-LPS 1 µg/mL, 24 h; for Inducible nitric oxide synthase Percentage inhibition Average: mean of duplicates; for Inducible nitric oxide synthase Percentage inhibition 1: replicate 1; for Inducible nitric oxide synthase Percentage inhibition 2: replicate 2", "procedure": "as §1\nNitric oxide synthase was measured using the method reported by Salter et al.. The cell lysate was homogenized in 2 ml of 4-(2-hydroxyethyl)-1-piperazineethanesulfonic acid (HEPES) buffer. The assay system contained 0.1 mL of 2 µmol/L L-Arginine, 0.1 mL of 4 µmol/L manganese chloride, 0.1 mL of 10 mmol/L 30 µg dithiothreitol (DTT), 0.1 mL of 1 mmol/L NADPH, 0.1 mL of 4 µmol/L tetrahydropterin, 0.1 mL of 10µmol/L oxygenated hemoglobin, and 0.1 mL of cell lysate. Enzyme activity was measured by recording an increase in absorbance at 401 nm, and the following equation was used: […]"}, "[2]": {"conditions": "6.25, 12.5, and 25 ng/mL, Pg-LPS stimulated"}},
  "note": "No end group written: not given here.",
  "data": [
    {"substance": "β-defensin 1: β-Defensin 1 peptide was purchased from ThermoFisher Scientific, USA; cationic antimicrobial peptide (DHYNCVSSGGQCLYSACPIFTKIQGTCYRGKAKCCK; ends and bridges not checked; cysteine pairing not given here; UniProt P60022 33-68, looked up)", "values": [
      {"measurement": "arrest in the G0/G1 phase (in words)", "setting": "THP-1 cells", "value": "reduced"},
      {"measurement": "COX Percentage inhibition Average", "setting": "COX; 6.25 ng/mL", "value": 19.085, "unit": "%"},
      {"measurement": "COX Percentage inhibition 1", "setting": "COX; 6.25 ng/mL", "value": 19.77, "unit": "%"},
      {"measurement": "COX Percentage inhibition 2", "setting": "COX; 6.25 ng/mL", "value": 18.4, "unit": "%"},
      {"measurement": "COX Percentage inhibition Average", "setting": "COX; 12.5 ng/mL", "value": 35.75, "unit": "%"},
      {"measurement": "COX Percentage inhibition 1", "setting": "COX; 12.5 ng/mL", "value": 36.41, "unit": "%"},
      {"measurement": "COX Percentage inhibition 2", "setting": "COX; 12.5 ng/mL", "value": 35.09, "unit": "%"},
      {"measurement": "COX Percentage inhibition Average", "setting": "COX; 25 ng/mL", "value": 53.03, "unit": "%"},
      {"measurement": "COX Percentage inhibition 1", "setting": "COX; 25 ng/mL", "value": 53.21, "unit": "%"},
      {"measurement": "COX Percentage inhibition 2", "setting": "COX; 25 ng/mL", "value": 52.85, "unit": "%"},
      {"measurement": "COX percentage inhibition (in words)", "setting": "COX; [2]", "value": "increased in a concentration-dependent manner"},
      {"measurement": "IC50 (COX inhibition assay)", "setting": "COX; Pg-LPS 1 µg/mL 1 h, then β-defensin 1 24 h", "value": 0.02262, "unit": "µg/mL"},
      {"measurement": "MPO Enzyme activity Average", "setting": "MPO; 6.25 ng/mL", "value": 0.02795, "unit": "U/mL"},
      {"measurement": "MPO Enzyme activity 1", "setting": "MPO; 6.25 ng/mL", "value": 0.0278, "unit": "U/mL"},
      {"measurement": "MPO Enzyme activity 2", "setting": "MPO; 6.25 ng/mL", "value": 0.0281, "unit": "U/mL"},
      {"measurement": "MPO Enzyme activity Average", "setting": "MPO; 12.5 ng/mL", "value": 0.021, "unit": "U/mL"},
      {"measurement": "MPO Enzyme activity 1", "setting": "MPO; 12.5 ng/mL", "value": 0.0209, "unit": "U/mL"},
      {"measurement": "MPO Enzyme activity 2", "setting": "MPO; 12.5 ng/mL", "value": 0.0211, "unit": "U/mL"},
      {"measurement": "MPO Enzyme activity Average", "setting": "MPO; 25 ng/mL", "value": 0.01515, "unit": "U/mL"},
      {"measurement": "MPO Enzyme activity 1", "setting": "MPO; 25 ng/mL", "value": 0.0152, "unit": "U/mL"},
      {"measurement": "MPO Enzyme activity 2", "setting": "MPO; 25 ng/mL", "value": 0.0151, "unit": "U/mL"},
      {"measurement": "MPO enzyme activity (in words)", "setting": "MPO; [2]", "value": "decreased in a concentration-dependent manner"},
      {"measurement": "Inducible nitric oxide synthase Percentage inhibition Average", "setting": "[1]; 6.25 ng/mL", "value": 19.08, "unit": "%"},
      {"measurement": "Inducible nitric oxide synthase Percentage inhibition 1", "setting": "[1]; 6.25 ng/mL", "value": 18.99, "unit": "%"},
      {"measurement": "Inducible nitric oxide synthase Percentage inhibition 2", "setting": "[1]; 6.25 ng/mL", "value": 19.17, "unit": "%"},
      {"measurement": "Inducible nitric oxide synthase Percentage inhibition Average", "setting": "[1]; 12.5 ng/mL", "value": 34.275, "unit": "%"},
      {"measurement": "Inducible nitric oxide synthase Percentage inhibition 1", "setting": "[1]; 12.5 ng/mL", "value": 34.63, "unit": "%"},
      {"measurement": "Inducible nitric oxide synthase Percentage inhibition 2", "setting": "[1]; 12.5 ng/mL", "value": 33.92, "unit": "%"},
      {"measurement": "Inducible nitric oxide synthase Percentage inhibition Average", "setting": "[1]; 25 ng/mL", "value": 50.135, "unit": "%"},
      {"measurement": "Inducible nitric oxide synthase Percentage inhibition 1", "setting": "[1]; 25 ng/mL", "value": 50.27, "unit": "%"},
      {"measurement": "Inducible nitric oxide synthase Percentage inhibition 2", "setting": "[1]; 25 ng/mL", "value": 50, "unit": "%"},
      {"measurement": "inducible nitric oxide synthase percentage inhibition (in words)", "setting": "[1]; [2]", "value": "increased in a concentration-dependent manner"}
    ]}
  ]
}
